In patent publication US9463174B2, “Pharmaceutical composition for the treatment of type-1 diabetes” (priority 2008, dated 2016):
Entries after “also recorded” stand apart in the source; their conditions may differ.

Assays:
[1] = test system: STC-1 cells; assay: GLP-1 production and secretion in gut-derived cells (GLP-1 RIA); assay type: cell-based
Method: In these in vitro assays using GLP-1-secreting and/or insulin-secreting cells, it was shown that the production and secretion of GLP-1 in the gut-derived cells (STC-1) were modulated by GABA, and the production and release of GABA from the beta-cells were also modulated by GLP-1. The specificity of these assays was determined by including the GABAAR antagonists or GLP-1 receptor antagonist in the assays.
Effects of GABA on stimulation of GLP-1 secretion from gut-derived cell lines. The production and secretion of GLP-1 in the gut-derived cells (STC-1) are examined by GLP-1 RIA. The time and dose dependent effects of GABA on GLP-1 production and secretion are examined in the gut cell lines in the presence of various concentration of GABA in which the specificity is determined by including the GABAAR antagonists in the assay.

[2] = test system: established diabetic MLDS-mice; assay: Reversal of well established diabetes in MLDS-mice by daily GABA injection; assay type: in vivo
Method: To investigate if GABA can reverse diabetes, daily GABA injection was started in well established diabetes in MLDS-mice (blood glucose>30 mM).
(§1) The techniques used for the in vivo and in vitro studies in this embodiment of the disclosure are also described. CD1 mice (Charles River Laboratories, St Constant, Canada), NOD mice and transgenic TCR NOD mice (Jackson Laboratory, USA) were housed under a controlled temperature and a 12-h light/12-h dark cycle in the St. Michael's Hospital Animal facility with free access to food (normal rodent chow) and water, except where noted. All procedures were conducted according to protocols and guidelines approved by the Canadian Council of Animal Care and the St. Michael's Hospital Animal Care committee. Mice were treated with GABA by daily intraperitoneal (i.p.) injection of 20·g GABA per mouse to reach ˜200 μM circulation concentration and PBS as control. The daily treatment is continuously conducted during 60-day experimental period. One wk after the GABA and PBS treatment, diabetes was induced in both groups by i.p.-injection of low-dose streptozotocin (STZ, Sigma Chemical Co., St. Louis, Mo. 40 mg/kg body weight) for 5 consecutive days. The development of hyperglycemia was monitored by measuring blood glucose from the tail vein every third day following STZ injections using an Ascensia ELITE® XL glucose meter. For some studies, overtly diabetic mice induced by STZ and without GABA treatment were divided into two groups: one group started receiving daily i.p. injection of 20·g GABA whereas other group received only PBS. The treatment was continued for 75 days. The handling of the NOD mice were similar to those CD1 mice except the STZ injection. The NOD mice have a susceptibility to spontaneous development of autoimmune T1D. The TCR transgenic 8.3-NOD mice have a markedly accelerated disease (J. Vergdaguer et al, 1997 J Exp Med. 186(10):1663-76).
Groups of mice were subject to a glucose tolerance test (IPGTT) before treatment (day 0), one, three, and five weeks after administration and the day prior termination. For IPGTT, mice were fasted overnight for 15 h, and were given 1.5 g glucose/kg body weight via i.p.-injection. Blood was drawn from the tail vein and blood glucose was measured at 0, 10, 20, 30, 60, 90, and 120 min after glucose administration.
(§2) Mice were housed in metabolic cages prior to initiation of GABA and PBS treatment and before termination of experiments. Food intake, water consumption and urine output were measured. To determine the fat distribution, three intra-abdominal fat pads retroperitoneal, mesenteric and epididymal were dissected and weighed. Subcutaneous fat was also analyzed.
Blood samples (200 μL) were collected from the saphenous vein at time as indicated and at the termination of experiments via cardiac puncture (1 mL) for measurement of insulin, glucagon, and cytokine profiles. Serum was collected by centrifugation and stored at −80° C. until use. Insulin and glucagon concentration in serum samples were determined using insulin ELISA kit (Crystal Chem., Chicago, Ill., USA) and glucagon RIA kit (Linco Research, St. Louis, Miss., USA). Circulating GLP-1 levels were determined using GLP-1 RIA kit (Linco Research, St. Louis, Miss., USA). Cytokine concentration in the serum samples was determined using kit Multiplex Bead-based Cytokine assay (BioRed, Canada).
Pancreas harvesting and tissue processing were performed as described previously (Wang Q, Brubaker P L 2002 Diabetologia. 45(9):1263-73). Briefly, after cardiac puncture under anesthesia, a midlaparotomy was performed and the pancreas was immediately dissected from surrounding tissues, cleared of fat and lymph nodes, blotted, weighed, and placed in a formaldehyde-acetic acid solution. The procedure from completion of cardiac puncture to placement of tissue in fixative was completed within 5 min. After overnight fixation, the pancreas was washed in cold running water, cut into 10-12 segments. […]

[3] = test system: established diabetic hyperglycemic NOD mice; assay: Treatment of established diabetes in NOD mice (GABA alone or GABA plus Ex4); assay type: in vivo
Method: as §1, §2
All data are presented as mean±SEM. Statistic analysis was performed using Student's t-test or analysis of variance (ANOVA) with ‘n−1’ post hoc custom hypotheses tests, as appropriate, with the SAS software (Statistical Analysis Systems, Cary, N.C.) or the GraphPad Prism 3.0 program (GraphPad Software Inc., San Diego, Calif.). The incidence of diabetes was plotted using the Kaplan-Meier method and statistical comparisons made with the log-rank test. The significance of differences in insulitis scores was determined with the Chi-squared test. The differences between groups in the in vitro proliferation and cytokine release assays were determined by analysis of variance (ANOVA). Significance was assumed at p<0.05.

[4] = day 74 after GABA daily administration

NCCCC(=O)O [GABA, gamma-aminobutyric acid]
production and secretion of GLP-1 in gut-derived cells (STC-1) [1]: modulated
glucose tolerance (IPGTT) at 7th days after GABA injections ([2]; 7th day): significantly improved; also recorded: improved glucose tolerance
blood glucose / diabetic hyperglycemia, course ([2]; daily GABA started at blood glucose>30 mM): started to decline only a few days after GABA injection; also recorded: reverses MLDS-induced diabetic hyperglycemia; also recorded: completely reversed diabetic hyperglycemia
blood glucose levels at day 74 [2, 4]: closed to the normal range
glucose tolerance at day 74 [2, 4]: almost identical to control normal mice; also recorded: improved glucose tolerance
metabolic conditions (metabolic studies) ([2]; established diabetic MLDS mice): normalized metabolic conditions; also recorded: normalized metabolic status
glucose tolerance at all time points examined ([2]; including two weeks and eight weeks after GABA injections): steadily improves glucose tolerance
islet morphology ([2]; islet histochemistry): almost normal islet morphology
lymphocytes in the islets ([2]; islet histochemistry): few lymphocytes were seen
alpha-cell mass ([2]; vs non-treated MLDS-mice): reduced alpha-cell mass
beta-cell mass ([2]; vs non-treated MLDS-mice): significant enlarged beta-cell mass; also recorded: significantly restored beta-cell mass
circulating glucagon ([2]; vs non-treated MLDS-mice): reduced circulating glucagon levels
circulating insulin ([2]; vs non-treated MLDS-mice): elevated circulating insulin
ratio of insulin to glucagon ([2]; vs non-treated MLDS-mice): largely increased ratio of insulin to glucagon; also recorded: significantly increased
time for which lower blood glucose levels were maintained ([3]; GABA alone): about two
blood glucose levels ([3]; GABA vs PBS, after onset of hyperglycemia): significantly reduced blood glucose levels
sickness ([3]; GABA-treated group): no obvious sickness was developed
diabetic symptoms (metabolic studies) ([3]; GABA-treated vs PBS): significantly lessened
reversal of diabetic hyperglycemia / remission ([3]; after onset of diabetic hyperglycemia, combination determined at two weeks after treatment): transient effect; also recorded: not able to achieve a full remission; also recorded: not effective in completely reversing diabetic hyperglycemia
incidence of diabetes ([3]; diabetes when blood glucose ≧12 mM, GABA 20·g mouse, Ex4 1 nmol/kg, therapies PBS, GABA alone, GABA plus Ex4): significantly lower
feces ([3]; established diabetic NOD mice): reduced
food intake ([3]; established diabetic NOD mice): reduced
urine ([3]; established diabetic NOD mice): reduced
water consumption ([3]; established diabetic NOD mice): reduced
